As a reminder, the IC50 is the point on the concentration scale where inhibition reaches its midpoint.

Here are results for 3 compounds from article PMC11641365, “Evaluation of In Vitro Biological Activity of Flavanone/Chromanone Derivatives: Molecular Analysis of Anticancer Mechanisms in Colorectal Cancer” (International Journal of Molecular Sciences, 2024).

The subject of assay [1] is HCT 116. The assay can be described thus: MTT cell viability assay. Format: cell-based. The conditions noted are these: Homo sapiens, 24 h incubation with compound, mean ± SD of three experiments, read-out: Cytotoxic effect, IC50. The protocol: (§1) The cytotoxic activity of the 3-benzylideneflavanones, 3-benzylidenechromanones derivatives (compounds 1, 2, 3, 4, 5) and 5′-(3-methoxyphenyl)-2-phenyl-4′,5′-dihydro-4H-spiro[chromano-3,3′-pirazol]-4-one (compound 3a) was evaluated using the MTT assay (4,5-dimethylthiazol-2-yl)-2,5-diphenyltetrazoliumbromide), a colorimetric method that quantifies cell viability.
(§2) Cell viability was determined using the metabolic microplate spectrophotometric assay with Methylthiazolyl diphenyltetrazolium bromide (MTT) (Sigma-Aldrich; St. Louis, MO, USA). The MTT method belongs to metabolic tests for determining cell viability and consists of measuring the absorbance of a violet solution of formazan, a product of the reduction of a water-soluble yellow MTT by oxidoreductive enzymes (mainly mitochondrial succinate dehydrogenase) of living cells. The amount of the reaction product (water-insoluble formazan crystals) is proportional to the number of living and metabolically active cells in the sample. In the case of damaged or dead cells, formazan is formed in smaller amounts, or it is not formed.
(§3) The appropriate number of cells for a given cell line (6–8 × 10^3 cells/mL) were seeded onto colorless, sterile 96-well microplates (Nunc, Roskilde, Denmark) in the number appropriate for a given cell line. After 24 h of culture, various concentrations of the studied compounds (10^−7–10^−5 M) freshly prepared in DMSO (final concentration DMS < 0.1%) and diluted with complete culture medium were added and incubated in a CO2 incubator for 24 h. After this time, the medium was removed; the cell monolayer was washed twice with sterile PBS solution; and fresh culture medium was added to the microplate wells. After 48 h of cell culture, the MTT test was performed. A volume of 50 μL of tetrazolium salt solution (final concentration 0.05 mg/mL) was added to each microplate well. The microplate was placed for 3–4 h (depending on the cell line) in a CO2 incubator. After incubation, 100 μL of DMSO was added to the wells of the microplate to dissolve the purple formazan crystals formed in the living cell environment. The absorbance of the formazan solution, after gentle mixing, was read at a wavelength of λ = 580 nm and a reference wavelength of λ = 720 nm (Biotek Power Wave HT, Biotek Instruments, Winooski, VT, USA). The percentage of living cells was calculated by comparing the absorbance value of the tested samples with the absorbance value of the control (cells not treated with compounds). The absorbance of the control was taken as 100%.
Background: Tetrazolium dyes change colour on reduction, which living cells bring about.

Assay [2] relates to LoVo. Description: MTT cell viability assay. It is filed as cell-based. The conditions noted are these: Homo sapiens, 24 h incubation with compound, mean ± SD of three experiments, read-out: Cytotoxic effect, IC50. The protocol: as §1, §2, §3
For assay [3], the system named is SW620. Description: MTT cell viability assay. It is filed as cell-based. The conditions noted are these: Homo sapiens, SW-620, 24 h incubation with compound, mean ± SD of three experiments, read-out: Cytotoxic effect, IC50. The protocol: as §1, §2, §3
Assay [4] deals with Caco-2. The assay can be described thus: MTT cell viability assay. It is filed as cell-based, human. The conditions noted are these: Homo sapiens, Caco-2, 24 h, 24 h incubation with compound, mean ± SD of three experiments, read-out: Cytotoxic effect, IC50. The protocol:
as §1, §2, §3

Assay [5] relates to HT-29. Description: MTT cell viability assay. It is filed as cell-based, human. The following applies: Homo sapiens, HT-29, 24 h, HT-29, 24 h incubation with compound, mean ± SD of three experiments, read-out: Cytotoxic effect, IC50. The protocol:
as §1, §2, §3

For assay [6], the system named is human colon cancer cell lines: HCT 116, SW620, LoVo, Caco-2, and HT-29. Description: MTT cell viability assay, statements across the panel. Format: cell-based. The following applies: Homo sapiens, range over the cancer cell lines, read-out: IC50 range against colon cancer cell lines. The protocol:
The cytotoxic activity of the 3-benzylideneflavanones, 3-benzylidenechromanones derivatives (compounds 1, 2, 3, 4, 5) and 5′-(3-methoxyphenyl)-2-phenyl-4′,5′-dihydro-4H-spiro[chromano-3,3′-pirazol]-4-one (compound 3a) was evaluated using the MTT assay (4,5-dimethylthiazol-2-yl)-2,5-diphenyltetrazoliumbromide), a colorimetric method that quantifies cell viability. […] These IC50 values were subsequently used for all experiments investigating the anticancer activity of the flavanone/chromanone derivatives in this study.
as §2
as §3, with “100%. […] Moreover, cisplatin (Sigma-Aldrich, St. Louis, MO, USA) was used as a reference compound, and identical incubation conditions were used as described above.” for “100%.”

The test system of assay [7] is poly-ADP ribose polymerase (PARP). Also noted: method as in PMID 35682740. The conditions noted are these: previous work of the authors; cited from earlier work.

SMILES strings stand for the structures. Some results are limits rather than exact numbers.

Turning to `Cc1ccc(/C=C2/C(=O)c3ccccc3OC2c2ccccc2)cc1` (stereo not shown) [Compound 4], the IC50 in assay [1] was 113 ± 5.1 µM; in assay [2] it was 178 ± 4.4 µM; in assay [3] it was > 250 µM; in assay [4], 156 ± 5.2 µM; in assay [5], 172 ± 4.2 µM; in assay [6], 70 to 210 µM.

In the case of `CCN(CC)c1ccc(/C=C2/C(=O)c3ccccc3OC2c2ccccc2)cc1` (stereo not shown) [Compound 2], the IC50 was 192 ± 3.4 µM in assay [1]; 200 ± 6.6 µM in assay [2]; 211 ± 2.9 µM in assay [3]; > 250 µM in assay [4]; > 250 µM in assay [5]; 70 to 210 µM in assay [6].

As to `Cc1cccc(C2CC3(N=N2)C(=O)c2ccccc2OC3c2ccccc2)c1` (stereo not shown) [5′-(3-methylphenyl)-2-phenyl-4′,5′-dihydro-4H-spiro[chromano-3,3′-pirazol]-4-one], in assay [7], the “Interaction with PARP” value was “effectively interacted with poly-ADP ribose polymerase (PARP), leading to its inactivation and degradation”.
